Test results reported in PMC10276006, “Mechanisms of simultaneous linear and nonlinear computations at the mammalian cone photoreceptor synapse” (Nature Communications, 2023).

Experiments:
[1] = tested on: T1, cone glutamate transporter (TBOA-sensitive; EAAT5 immunolabelled at cone terminal); settings: read-out: steady state EC50
T1 construct: gene SLC1A7

[2] = tested on: T2, cb1a cell KARs (kainate receptors of cb1a Off bipolar cells); settings: desensitization by glutamate; supplement only
T2 construct: gene GRIK1

[3] = tested on: T2, cb1a cell KARs (kainate receptors of cb1a Off bipolar cells); settings: mean of n = 6 somas (Hill n 1.11); 35 µM GYKI 53655 blocks AMPA receptors; pH 7.4; 32-33 °C

## N[C@@H](CCC(=O)O)C(=O)O [glutamate]
[1]
  EC50: 710 nM
[2]
  IC50: 30.4 ± 10.2 µM
[3]
  EC50: 1.4 ± 0.16 mM
